System: PLC biosensor
Test: microbe, parasite or virus in culture
Type: cell-based, E. coli BL21
Details: for EC10: BL21; for Emax: BL21, read-out: Induction; for maximal fold induction: BL21, read-out: Signal range (max/min), substrate screening, PLC biosensor, E. coli BL21; for EC50 / EC90 / Induction / Sensing range (predicted) / Change in potency relative to sinapic acid (4) / Activity against the FerC biosensor: PLC biosensor; for EC50 / EC90 / Change in potency relative to sinapic acid (4) / Activity against the FerC biosensor: E. coli BL21; for Induction: E. coli BL21, 0.32–1000 μM; for Sensing range (predicted): E. coli BL21, text; for Output signal / efficacy: relative to the PLC biosensor response curve with ferulic acid
Experimental: Cells were centrifuged, washed and re-suspended with PBS buffer. The expression output was then analyzed by monitoring the fluorescence normalised to cell density (RFU/OD600) in a multimode plate reader (Methods, ESI ^†).
The sequences containing the PLC, PPC and PferB promoters, a RBS, and a Hexa-Histidine tag, flanked by SphI/NdeI were synthetized (GeneART, ThermoFisher). The sequences were enzyme restricted with SphI/NdeI and cloned in pET44eGFP,2 upstream to the eGFP gene, replacing the T7 promoter region generating respectively, the pET44PLCeGFP, pET44PPCeGFP and pET44PferBeGFP vectors.
The FerCA DNA sequence containing the ferA and ferC genes, individually flanked by a PLacI promoter and an rrn_B1 terminator, was synthetized by GeneARTTM (ThermoFisher).
The construct was cloned in a p15 plasmid flanked by NaeI/KasI restriction sites generating […]
the p15FerCA vector. […]
Biosensors Performance and Screening Methods
Reporter controls and the biosensor systems PLC, PPC and PferB were respectively generated by transformation of pET44PLCeGFP, pET44PPCeGFP and pET44PFerBeGFP vectors alone or with p15FerCA in BL21 and DH10B chemically competent E. coli cells. A single colony of each system was grown in LB media supplemented with antibiotics at 37 °C with shaking at 180rpm for 16 hours. Cultures were diluted (1:100) in fresh LB media with appropriate antibiotics, re-incubated at 37 °C with shaking until OD ~0.6 and transferred (450 μL) to multi- […]
μM and 1000 μM. Induction plates were incubated at 37 °C, with shaking at 1000 RPM (Stuart microtitre plate shaker incubator) for 3 hours. Cells were harvested by centrifugation, washed twice and re-suspended with PBS buffer. Expression output was analyzed by monitoring the fluorescence normalised to cell density (RFU/OD) in a multimode plate reader. […]
Compounds for screening were selected using cinnamic acid as a reference structure. The 58 selected compounds were tested with the PLC biosensor in E. coli BL21 cells. The substrate screening assays were performed using concentrations ranging from 0.32 μM to 1000 μM, as described for Ferulic acid. […]
Data Processing and Curve Fitting
Biosensor signal output (eGFP expression) was measured as Relative Fluorescence Units (RFU) and normalised to cell density (OD600). The background auto-fluorescence of E. coli was subtracted from RFU/OD and was normalised (%) to the pLC biosensor response curve to ferulic acid for each experiment. The normalised data was plotted and fitted with a dose-response curve using the Levenberg Marquardt logistic growth/sigmoidal algorithm, using the Origin 2015 (OriginLab, Northampton MA USA) program. The biomass screening data was […]

[1] = Escherichia coli, BL21, substrate screening

Row | SMILES | EC10 (Escherichia coli) [µM] | Emax (Escherichia coli) [%] | maximal fold induction (Escherichia coli) | EC50 [1] [µM] | EC90 [1] [mM] | Induction (substrate screening) | EC50 (substrate screening) [µM] | Sensing range (predicted) (substrate screening) [fold] | Change in potency relative to sinapic acid (4) (substrate screening) [fold] | Output signal / efficacy (substrate screening) [%] | Activity against the FerC biosensor (substrate screening)
1 | O=C(O)C=Cc1ccc(O)cc1 [compound 2, p-Coumaric acid] | 3.9 | > 70 | 25 | 26.1 ± 3.8 | 0.174 | H (high output signals, and hence good efficacy (>70%)) |  |  |  |  | 
2 | Nc1ccc(C=CC(=O)O)cc1 [compound 3, 3-(4-Aminophenyl)-2-propenoic acid] | 12 | > 70 | 28.1 | 110 ± 25.7 | 1.01 | H (high output signals, and hence good efficacy (>70%)) |  |  |  |  | 
3 | COc1cc(/C=C/C(=O)O)cc(OC)c1O [compound 4, Sinapic acid] | 19.8 | > 70 | 15.4 | > 200 | 4.99 | H (high output signals, and hence good efficacy (>70%)) | 314 ± 55.8 | 225 |  |  | 
4 | COc1ccc(C=CC(=O)O)cc1O [compound 5, 3-Hydroxy-4-methoxycinnamic acid] | 36.3 | > 70 | 33.5 | > 200 | 1.51 | H (high output signals, and hence good efficacy (>70%)) | 234 ± 15.4 |  |  |  | 
5 | COc1cc(C=CC(=O)O)cc(O)c1O [compound 6, 3,4-Dihydroxy-5-methoxycinnamic acid] | 33.9 | 40 to 60 | 14.8 | 746 ± 118 | 16.4 | M (moderate signal (60–40%)) |  | 485 | 2.5 |  | 
6 | O=C(O)C=Cc1ccc(O)cc1O [compound 7, 2,4-Dihydroxycinnamic acid] | 131 | 40 to 60 | 9.6 | 823 ± 45.6 | 5.17 | M (moderate signal (60–40%)) |  |  |  |  | 
7 | COc1ccc(C=CC(=O)O)cc1OC [compound 8, 3,4-Dimethoxycinnamic acid] | 228 | 40 to 60 | 11.4 | 825 ± 13.2 | 2.99 | M (moderate signal (60–40%)) |  |  |  |  | 
8 | O=C(O)/C=C/c1ccc(O)c(O)c1 [compound 9, Caffeic acid] | 222 | 40 to 60 | 11.2 | 1180 ± 88.5 | 6.25 | M (moderate signal (60–40%)) |  |  |  |  | 
9 | O=C(O)C=Cc1ccc([N+](=O)[O-])cc1 [compound 10, 4-Nitrocinnamic acid] | 158 | 40 to 60 | 9.5 | 1560 ± 96.8 | 15.5 | M (moderate signal (60–40%)) |  |  |  |  | 
10 | COc1cc(C=CC(=O)O)cc(OC)c1OC [compound 11, 3,4,5-Trimethoxycinnamic acid] | 378 | < 40 | 6.7 | > 2000 | 14.8 | L (low signals (<40%)) | 2360 ± 265 |  | 8 | < 40 | 
11 | COc1cc(CCC(=O)O)ccc1O [compound 12, 3-(4-Hydroxy-3-methoxyphenyl)propionic acid] | 702 | < 40 | 3.3 |  | 31.3 | L (low signals (<40%)) |  |  |  | < 40 | low activity
12 | COc1cccc(C=CC(=O)O)c1 [compound 13, 3-Methoxycinnamic acid] | 816 | < 40 | 4.8 |  |  | L (low signals (<40%)) |  |  |  | < 40 | 
13 | O=C(O)/C=C/c1ccccc1 [compound 14, cinnamic acid] |  |  |  |  |  |  |  |  |  |  | no activity
14 | Cc1ccc(C=CC(=O)O)cc1 [compound 29, 4-methylcinnamic acid] |  |  |  |  |  |  |  |  |  |  | devoid of activity
